Data as given in patent publication US12150998B2, “Bicyclic peptide ligands specific for P-selectin” (BicycleTx Limited, priority 2021, dated 2024).
Starred links: 1 amine or outer side, 2 acyl side, 3 side chain; linkers in the order of their positions; H or OH if unused. Positions of bridges follow the written chain, without caps; N, C: chain ends. Non-standard residues stand in square brackets, D forms with d. Residues, ends and D or L forms follow the SMILES beside them. Chains are numbered I, II in the order given. X5 = O=C(CCCC(=O)NCCOCCOCCOCCOCCOCCOCCOCCOCCOCCOCCn1cc(CCC(=O)[*:2])nn1)NCCOCCOCCOCCOCCOCCOCCOCCOCCOCCOCCn1cc(CCC(=O)[*:1])nn1; TATA = O=C(CC[*:1])N1CN(C(=O)CC[*:2])CN(C(=O)CC[*:3])C1; X1 = O=C(C[*:1])N1CCN(C(=O)C[*:2])CCN(C(=O)C[*:3])CC1; 1Nal = N[C@@H](Cc1cccc2ccccc12)C(=O)O

Tests used:
human P-Selectin protein = target: T1, human P-Selectin protein (Homo sapiens, UniProt P16109); assay: SPR binding assay (Biacore); conditions: recombinant biotinylated human P-Selectin, 25° C.; read-out: Affinity KD determined by SPR
T1 sequence (P16109 42-830): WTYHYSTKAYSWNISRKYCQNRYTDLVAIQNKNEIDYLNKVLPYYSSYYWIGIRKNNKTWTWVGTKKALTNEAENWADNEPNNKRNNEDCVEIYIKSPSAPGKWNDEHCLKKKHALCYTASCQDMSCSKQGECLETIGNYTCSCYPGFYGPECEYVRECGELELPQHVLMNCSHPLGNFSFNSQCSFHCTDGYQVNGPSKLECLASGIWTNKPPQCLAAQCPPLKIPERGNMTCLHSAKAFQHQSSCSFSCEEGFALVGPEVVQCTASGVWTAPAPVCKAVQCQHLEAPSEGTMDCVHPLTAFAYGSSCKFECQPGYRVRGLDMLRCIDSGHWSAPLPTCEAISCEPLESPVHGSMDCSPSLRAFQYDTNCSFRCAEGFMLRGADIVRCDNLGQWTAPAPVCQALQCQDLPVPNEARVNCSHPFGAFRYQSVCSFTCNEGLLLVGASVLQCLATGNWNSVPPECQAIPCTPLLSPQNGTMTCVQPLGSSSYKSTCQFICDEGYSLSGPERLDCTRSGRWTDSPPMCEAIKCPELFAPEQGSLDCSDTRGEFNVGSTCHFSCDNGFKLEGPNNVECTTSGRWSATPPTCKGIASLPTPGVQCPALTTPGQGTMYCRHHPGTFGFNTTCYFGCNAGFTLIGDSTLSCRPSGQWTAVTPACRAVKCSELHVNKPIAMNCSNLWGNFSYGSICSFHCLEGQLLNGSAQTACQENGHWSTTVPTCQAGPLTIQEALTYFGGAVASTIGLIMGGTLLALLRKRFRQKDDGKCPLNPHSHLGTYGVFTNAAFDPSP
Procedure: Biacore experiments were performed to determine ka (M−1s−1), kd (s−1), KD (nM) values of monomeric peptides binding to human Selectin proteins. Recombinant biotinylated human P-Selectin protein was used. For analysis of binding, either a Biacore 3000 or 5200 instrument was used with a CMS sensor chip (GE Healthcare). For sensor chip surface preparation, streptavidin was immobilized on the chip using standard amine-coupling chemistry at 25° C. with HBS-N (10 mM HEPES, 0.15 M NaCl, pH 7.4) as the running buffer. The carboxymethyl dextran surface was activated with a 12 min injection of a 1:1 ratio of 0.4 M 1-ethyl-3-(3-dim ethyl aminopropyl) carbodiimide hydrochloride (EDC)/0.1 M N-hydroxy succinimide (NHS) at a flow rate of 10 μl/min. For capture of streptavidin, protein was diluted to 0.2 mg/ml in 10 mM sodium acetate (pH 4.5) and captured by injecting 70 μl onto the activated chip surface. Residual activated groups were blocked with a 7 min injection of 1 M ethanolamine (pH 8.5). Biotinylated protein stock was diluted 1:100 in HBS-N and captured on one flow cell at 5 μl/min to a level of 1000-1500 RU. Buffer was changed to PBS/0.05% Tween 20 and a dilution series of the peptides was prepared in this buffer with a final DMSO concentration of 0.5%. The top concentration of the analyte varied from 200 nM to 50 μM; depending on predicted affinity of the interaction. In all cases a titration was performed with either seven 2-fold dilutions or five 3-fold dilutions. The SPR analysis was run at 25° C. with a flow rate of 50-80 μl/min with 60 seconds association and a suitable disassociation period (100-900 seconds). Data were corrected for DMSO excluded volume effects. All data were double-referenced for blank injections and reference surface using standard processing procedures and data processing and kinetic fitting were performed using Scrubber software, version 2.0c (BioLogic Software). Data were fitted using mass transport model allowing for mass transport effects where appropriate.

[1] = target: T2, P-Selectin:PSGL1 interaction (Homo sapiens, UniProt P16109); assay: Receptor ligand inhibition assay (P-Selectin binding to HL-60 cells); assay type: cell-based; conditions: geomean of n=3; for IC50: 5 nM P-Selectin, HL-60 cells, read-out: IC50; for Inhibition at top concentration: 100−% response at top concentration
T2 construct: host or cells: HL-60 cells (ATCC, CCL-240) supply the PSGL-1 partner endogenously
T2 sequence (P16109 42-771 limits assumed): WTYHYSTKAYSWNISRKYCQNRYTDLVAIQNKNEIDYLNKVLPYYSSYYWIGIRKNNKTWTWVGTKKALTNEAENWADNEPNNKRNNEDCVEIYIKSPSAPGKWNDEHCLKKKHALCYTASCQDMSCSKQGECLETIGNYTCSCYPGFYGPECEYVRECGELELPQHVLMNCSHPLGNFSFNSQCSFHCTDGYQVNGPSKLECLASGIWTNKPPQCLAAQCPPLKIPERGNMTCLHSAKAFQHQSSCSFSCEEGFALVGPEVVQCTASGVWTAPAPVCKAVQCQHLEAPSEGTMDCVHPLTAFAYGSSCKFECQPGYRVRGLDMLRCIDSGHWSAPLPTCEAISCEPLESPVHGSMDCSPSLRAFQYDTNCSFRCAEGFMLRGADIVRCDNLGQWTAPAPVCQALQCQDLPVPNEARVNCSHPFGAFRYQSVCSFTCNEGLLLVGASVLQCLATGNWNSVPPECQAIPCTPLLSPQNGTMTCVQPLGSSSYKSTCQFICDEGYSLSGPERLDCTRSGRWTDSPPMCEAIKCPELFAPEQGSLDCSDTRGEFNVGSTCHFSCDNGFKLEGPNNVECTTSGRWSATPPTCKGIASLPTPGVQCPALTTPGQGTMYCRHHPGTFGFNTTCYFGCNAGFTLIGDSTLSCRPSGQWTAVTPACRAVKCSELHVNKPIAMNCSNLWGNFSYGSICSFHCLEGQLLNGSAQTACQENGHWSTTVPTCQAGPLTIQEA
Procedure: Bicycle test samples, SelG1 (Crizanlizumab) were serially diluted maintaining 0.5% DMSO in assay buffer (25 mM HEPES, 121 mM NaCl, 5.4 mM KCl, 0.8 mM MgCl2, 1.8 mM CaCl2), 6 mM […], 5.5 mM glucose, 1% BSA, pH7.4) and transferred to 384 well clear bottom plates (Corning, 3712) with a final volume of 6 μL. […], of P-Selectin in imaging buffer (25 mM HEPES, 121 mM NaCl, 5.4 mM KCl, 0.8 mM MgCl2, 1.8 mM CaCl2), 6 mM […], 5.5 mM glucose, pH7.4) was added to give a 5 nM final concentration and incubated at room temperature for 15 minutes. HL-60 cells (ATCC, CCL-240) mixed with 1 μg/mL far red labelled wheat germ agglutinin (WGA, ThermoFisher W21404) and 1 μg/mL AlexaFluor 488-streptavidin (Invitrogen S11223) were added to the plate and incubated for 2 hours at room temperature in the absence of light. Staining and antibody binding were quantified by simultaneously scanning the microplates with 488 nm and 640 nm lasers on a mirrorball microplate cytometer, AF488 on FL2 triggering on AF647-WGA on FL4. Data was analysed in Dotmatics, using a four parameter logistic fit to generate IC50 values and % response. Percent inhibition was calculated using 100−% response at top concentration.

Compound | Kd (human P-Selectin protein) | IC50 [1] | Inhibition at top concentration [1]
CSCC[C@@H]1NC(=O)[C@H](Cc2ccc(O)cc2)NC(=O)[C@@H](NC(=O)[C@H](C)NC(=O)CCc2cn(CCOCCOCCOCCOCCOCCOCCOCCOCCOCCOCCNC(=O)CCCC(=O)NCCOCCOCCOCCOCCOCCOCCOCCOCCOCCOCCn3cc(CCC(=O)N[C@@H](C)C(=O)N[C@H]4CSCCC(=O)N5CN6CN(C5)C(=O)CCSC[C@H](NC(=O)[C@H](Cc5c[nH]c7ccccc57)NC(=O)[C@H](CCC(=O)O)NC(=O)[C@H](CCSC)NC(=O)[C@H](Cc5ccc(O)cc5)NC4=O)C(=O)N[C@@H](CC(=O)O)C(=O)N[C@@H](C(C)C)C(=O)N[C@@H]([C@@H](C)O)C(=O)N[C@@H](CC(=O)O)C(=O)N[C@@H](Cc4ccc(O)cc4)C(=O)NCC(=O)N[C@H](C(=O)N[C@@H](C)C(N)=O)CSCCC6=O)nn3)nn2)CSCCC(=O)N2CN3CN(C2)C(=O)CCSC[C@H](NC(=O)[C@H](Cc2c[nH]c4ccccc24)NC(=O)[C@H](CCC(=O)O)NC1=O)C(=O)N[C@@H](CC(=O)O)C(=O)N[C@@H](C(C)C)C(=O)N[C@@H]([C@@H](C)O)C(=O)N[C@@H](CC(=O)O)C(=O)N[C@@H](Cc1ccc(O)cc1)C(=O)NCC(=O)N[C@H](C(=O)N[C@@H](C)C(N)=O)CSCCC3=O [BCY5454] | 400 nM | – | –
CSCC[C@@H]1NC(=O)[C@H](Cc2ccc(O)cc2)NC(=O)[C@@H](NC(=O)[C@H](C)NC(C)=O)CSCCC(=O)N2CN3CN(C2)C(=O)CCSC[C@H](NC(=O)[C@H](Cc2c[nH]c4ccccc24)NC(=O)[C@H](CCC(=O)O)NC1=O)C(=O)N[C@@H](CC(=O)O)C(=O)N[C@@H](C(C)C)C(=O)N[C@@H]([C@@H](C)O)C(=O)N[C@@H](CC(=O)O)C(=O)N[C@@H](Cc1ccc(O)cc1)C(=O)NCC(=O)N[C@H](C(=O)N[C@@H](CCCCNC(=O)CCc1cn(CCOCCOCCOCCOCCOCCOCCOCCOCCOCCOCCNC(=O)CCCC(=O)NCCOCCOCCOCCOCCOCCOCCOCCOCCOCCOCCn2cc(CCC(=O)NCCCC[C@H](NC(=O)[C@@H]4CSCCC(=O)N5CN6CN(C5)C(=O)CCSC[C@H](NC(=O)[C@H](Cc5c[nH]c7ccccc57)NC(=O)[C@H](CCC(=O)O)NC(=O)[C@H](CCSC)NC(=O)[C@H](Cc5ccc(O)cc5)NC(=O)[C@@H](NC(=O)[C@H](C)NC(C)=O)CSCCC6=O)C(=O)N[C@@H](CC(=O)O)C(=O)N[C@@H](C(C)C)C(=O)N[C@@H]([C@@H](C)O)C(=O)N[C@@H](CC(=O)O)C(=O)N[C@@H](Cc5ccc(O)cc5)C(=O)NCC(=O)N4)C(N)=O)nn2)nn1)C(N)=O)CSCCC3=O [BCY5456] (I: Ac-ACYMEWCDVTDYGCK-NH2 / II: Ac-ACYMEWCDVTDYGCK-NH2; linker I:2-I:7-I:14, II:2-II:7-II:14 via TATA; linker I:15-II:15 via X5) | 500 nM | – | –
CSCC[C@@H]1NC(=O)[C@H](Cc2ccc(O)cc2)NC(=O)[C@@H](NC(C)=O)CSCCC(=O)N2CN3CN(C2)C(=O)CCSC[C@H](NC(=O)[C@H](Cc2c[nH]c4ccccc24)NC(=O)[C@H](CCC(=O)O)NC1=O)C(=O)N[C@@H](CC(=O)O)C(=O)N[C@@H](C(C)C)C(=O)N[C@@H]([C@@H](C)O)C(=O)N[C@@H](CC(=O)O)C(=O)N[C@@H](Cc1ccc(O)cc1)C(=O)NCC(=O)N[C@H](C(N)=O)CSCCC3=O [BCY9717, Ac-(SEQ ID NO: 6)] (Ac-CYMEWCDVTDYGC-NH2; linker 1-6-13 via TATA; C-terminus assumed) | – | > 10900 nM | 20%

Second part, the molecule after the results:

Kd (human P-Selectin protein) | IC50 [1] | Inhibition at top concentration [1] | Compound
– | > 3540 nM | 24% | CSCC[C@@H]1NC(=O)[C@H](Cc2ccc(O)cc2)NC(=O)[C@@H](NC(=O)[C@H](C)NC(C)=O)CSCCC(=O)N2CN3CN(C2)C(=O)CCSC[C@H](NC(=O)[C@H](Cc2cccc4ccccc24)NC(=O)[C@H](CCC(=O)O)NC1=O)C(=O)N[C@@H](CC(=O)O)C(=O)N[C@@H](C(C)C)C(=O)N[C@@H]([C@@H](C)O)C(=O)N[C@@H](CC(=O)O)C(=O)N[C@@H](Cc1ccc(O)cc1)C(=O)NCC(=O)N[C@H](C(=O)N[C@@H](C)C(N)=O)CSCCC3=O [BCY11279, Ac-A-(SEQ ID NO: 4)-A] (Ac-ACYME[1Nal]CDVTDYGCA-NH2; linker 2-7-14 via TATA)
– | > 117 nM | 37% | CC(C)C[C@@H]1NC(=O)[C@H](CO)NC(=O)[C@@H]2CCCN2C(=O)[C@H](C(C)C)NC(=O)[C@H](CC(=O)O)NC(=O)[C@@H]2CSCC(=O)N3CCN(CCN(CC3)C(=O)CSC[C@@H](C(=O)N[C@@H](C)C(N)=O)NC(=O)[C@@H]3CCCN3C1=O)C(=O)CSC[C@H](NC(=O)[C@H](C)N)C(=O)N[C@@H](CC(=O)O)C(=O)N[C@@H](C)C(=O)N[C@@H](CC(=O)O)C(=O)N[C@@H](Cc1c[nH]c3ccccc13)C(=O)N2 [BCY11648, A-(SEQ ID NO: 3)-A] (H-ACDADWCDVPSLPCA-NH2; linker 2-7-14 via X1; N-terminus and C-terminus assumed)
